What was measured:
[1] = biological target: T1, Phenylalanine-4-hydroxylase (Homo sapiens, UniProt P00439); assay: Inhibitory concentration against human phenylalanine hydroxylase
T1 sequence (P00439 whole entry): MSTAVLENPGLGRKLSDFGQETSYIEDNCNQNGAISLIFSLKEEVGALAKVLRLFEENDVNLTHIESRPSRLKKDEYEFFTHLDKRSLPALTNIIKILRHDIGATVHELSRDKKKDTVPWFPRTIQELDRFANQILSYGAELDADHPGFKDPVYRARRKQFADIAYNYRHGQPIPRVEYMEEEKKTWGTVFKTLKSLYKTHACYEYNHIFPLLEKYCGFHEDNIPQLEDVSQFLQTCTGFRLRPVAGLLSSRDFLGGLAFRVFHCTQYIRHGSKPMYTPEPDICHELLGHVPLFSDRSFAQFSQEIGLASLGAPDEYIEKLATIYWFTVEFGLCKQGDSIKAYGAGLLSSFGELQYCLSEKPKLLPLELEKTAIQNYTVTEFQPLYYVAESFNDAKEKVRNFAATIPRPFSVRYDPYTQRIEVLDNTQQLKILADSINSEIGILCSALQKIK

[2] = biological target: T1, Phenylalanine-4-hydroxylase; assay: Binding affinity for human phenylalanine hydroxylase

- IC50 [1]: 1 µM
- Ki [2]: 7 µM
SMILES: CC(O)C(O)C1CNc2c(nc(N)[nH]c2=O)N1 (configuration not stated)
